According to PMC9721025, “Pharmacokinetic study of the main components of Tanreqing capsules and Tanreqing injections in beagles by liquid chromatography–tandem mass spectrometry” (Chinese Medicine, 2022):
Read-outs that look alike come from different tables or passages of the source.

Tests used:
[1] = Pharmacokinetics in beagles, single-dose regimen of TRQI (i.v.) or TRQC (oral), plasma LC-MS/MS; format: in vivo, beagle; conditions: for AUC(0-t) / Cmax / Tmax / half-life: beagle, dog, plasma; for AUC(0-t): read-out: AUC0–24 h; for Cmax / Tmax / half-life: mean of six beagles
Procedure: (§1) 100 μL plasma sample was drawn and transferred to 1.5 mL centrifuge tube prior to 300 μL protein precipitant (3:1 [v/v] methanol/acetonitrile, containing 0.1% formic acid and 100 ng/mL IS) was added, and then the sample was vortex-mixed for 3 min. The mixture was centrifuged at 20,000 ×g for 10 min, and 100 μL supernatant was transferred to the injection vial and analyzed directly by LC–MS/MS.
(§2) This study was carried out in six beagles (three males and three females, 9.0–12.0 kg each), that were purchased from Junda Pet Hospital (Shanghai, China). This experimental protocol was approved by the Experimental Animal Ethics Committee of the Naval Military Medical University (Shanghai, China).
The six healthy beagles were divided into two groups: beagles 1–3 were all male and were assigned to the first group, and beagles 4–6 were all females and assigned to the second group. The two-cycle, crossover study was designed with a 7-day wash out period. For the single-administration process, the dogs in the first group were injected intravenously with 0.5 mL/kg TRQI (one-third of the normal daily dose), and blood samples were collected at 0, 5, 10, 15, 20, 30, and 45 min and then at 1, 2, 4, 6, 8, 12, and 24 h (a total of 14 time points) after injection. For each blood sample, 1 mL of blood was collected from the forelimb vein in heparin-treated tubes. The dogs in the second group were orally administrated 0.09 g/kg TRQC (one-third of the normal daily dose, and blood samples were collected in the same manner at 0, 10, 20, and 40 min and then at 1, 1.5, 2, 2.5, 3, 4, 6, 8, 12, and 24 h (a total of 14 time points). All blood samples were centrifuged at 4000 × g for 5 min, and each supernatant was collected and aliquoted. After a 7-day wash out period, the dogs in each group were administrated the other Tanreqing formulation in a crossover design, and blood samples were collected and processed in the same way.
(§3) All data obtained were analyzed using Drug and Statistics (DAS) 2.0 software (Chinese Society of Pharmacology), and a non-compartment analysis was used to calculate plasma pharmacokinetic parameters. The principal components of TRQI and TRQC were compared with an analysis of variance (ANOVA) and/or a two-tailed student-t test.

[2] = Pharmacokinetics in beagles, multiple-dose regimen (once per day for 7 days) of TRQI or TRQC, plasma LC-MS/MS; format: in vivo; conditions: beagle, dog
Procedure: as §1, §2
After the end of the single-dose experiment, the dogs in group one were given 0.5 mL/kg injection of TRQI once per day for 7 days following the wash out period, and the dogs in group two were given 0.09 g/kg TRQC once per day for 7 days. After the seventh administration, blood samples were collected at 0, 10, 20, and 40 min and then at 1, 1.5, 2, 2.5, 3, 4, 6, 8, 12, and 24 h (a total of 14 time points) and were processed as described in “Single-dose regimen” section. The resulting plasma samples were used to determine the steady-state plasma concentration of TRQI and TRQC. A crossover study was again carried out in both groups, as described in “Single-dose regimen” section, after a 7-day washing period.
as §3

[3] = Stability of analytes in dog plasma (QC samples); format: in vitro ADME
Procedure: The stock solutions of all analytes were further mixed and diluted with methanol/water (10:90, v/v) solution to prepare the working solutions. […] The QC samples were stored in a refrigerator at – 80 °C until retrieval (see Additional file 1). The stability, which includes short-term stability (6 h at room temperature), long-term stability (− 80 °C for 30 days in the refrigerator), and freeze–thaw stability (three cycles from − 80 °C to room temperature), were assessed using QC samples at three concentration levels in three replicates. […] Similarly, there were no obvious effects on the analysis results of the samples with respect to short-term stability or long-term storage.

[4] = Tanreqing injection, cited from earlier work
[5] = both sexes, iv, single i.v. dose of TRQI 0.5 mL/kg
[6] = both sexes, single oral dose of TRQC 0.09 g/kg
[7] = both sexes, iv, TRQI 0.5 mL/kg once per day for 7 days, mean
[8] = both sexes, po, TRQC 0.09 g/kg once per day for 7 days, mean
[9] = n = 3, high QC: nominal 200 ng/mL baicalin, 1000 ursodeoxycholic acid, 100 chenodeoxycholic acid and chlorogenic acid
[10] = n = 3, low QC: nominal 4 ng/mL baicalin, 20 ursodeoxycholic acid, 2 chenodeoxycholic acid and chlorogenic acid
[11] = n = 3, middle QC: nominal 20 ng/mL baicalin, 100 ursodeoxycholic acid, 10 chenodeoxycholic acid and chlorogenic acid

C[C@H](CCC(=O)O)[C@H]1CC[C@H]2[C@@H]3[C@@H](O)C[C@@H]4C[C@H](O)CC[C@]4(C)[C@H]3CC[C@]12C [Ursodeoxycholic acid, ursodeoxycholic acid]
time at which oral absorption reached a peak ([1]; TRQC, oral, dogs): ~5 h
AUC(0-t) ([1]; both sexes, iv, 0.5 mL/kg, single TRQI 0.5 mL/kg, Mean): 4080 ng·h/mL
Cmax [1, 5]: 2750 ng/mL
Tmax [1, 5]: 0.08 h
half-life [1, 5]: 27.7 h
AUC(0-t) ([1]; both sexes, po, 0.09 g/kg, single TRQCs 0.09 g/kg, Mean): 4400 ng·h/mL
Cmax [1, 6]: 1330 ng/mL
Tmax [1, 6]: 5.94 h
half-life [1, 6]: 10.4 h
AUC(0-t) ([1]; female, iv, 0.5 mL/kg, single TRQI 0.5 mL/kg, beagle No 4): 898 ng·h/mL
AUC(0-t) ([1]; female, iv, 0.5 mL/kg, single TRQI 0.5 mL/kg, beagle No 5): 1160 ng·h/mL
AUC(0-t) ([1]; female, iv, 0.5 mL/kg, single TRQI 0.5 mL/kg, beagle No 6): 992 ng·h/mL
AUC(0-t) ([1]; female, po, 0.09 g/kg, single TRQCs 0.09 g/kg, beagle No 4): 11300 ng·h/mL
AUC(0-t) ([1]; female, po, 0.09 g/kg, single TRQCs 0.09 g/kg, beagle No 5): 1880 ng·h/mL
AUC(0-t) ([1]; female, po, 0.09 g/kg, single TRQCs 0.09 g/kg, beagle No 6): 3700 ng·h/mL
AUC(0-t) ([1]; male, iv, 0.5 mL/kg, single TRQI 0.5 mL/kg, beagle No 1): 18200 ng·h/mL
AUC(0-t) ([1]; male, iv, 0.5 mL/kg, single TRQI 0.5 mL/kg, beagle No 2): 1100 ng·h/mL
AUC(0-t) ([1]; male, iv, 0.5 mL/kg, single TRQI 0.5 mL/kg, beagle No 3): 2120 ng·h/mL
AUC(0-t) ([1]; male, po, 0.09 g/kg, single TRQCs 0.09 g/kg, beagle No 1): 1700 ng·h/mL
AUC(0-t) ([1]; male, po, 0.09 g/kg, single TRQCs 0.09 g/kg, beagle No 2): 3190 ng·h/mL
AUC(0-t) ([1]; male, po, 0.09 g/kg, single TRQCs 0.09 g/kg, beagle No 3): 4590 ng·h/mL
AUC(0-inf) ([2]; both sexes, iv, 0.5 mL/kg, TRQI 0.5 mL/kg for 7 days, Mean): 19100 ng·h/mL
AUC(0-t) ([2]; both sexes, iv, 0.5 mL/kg, TRQI 0.5 mL/kg for 7 days, Mean, read-out: AUC0–24 h): 16400 ng·h/mL
Cmax at 7 days [2, 7]: 5060 ng/mL
half-life at 7 days [2, 7]: 6.84 h
AUC(0-inf) ([2]; both sexes, po, 0.09 g/kg, TRQC 0.09 g/kg for 7 days, Mean): 35300 ng·h/mL
AUC(0-t) ([2]; both sexes, po, 0.09 g/kg, TRQC 0.09 g/kg for 7 days, Mean, read-out: AUC0–24 h): 28500 ng·h/mL
Cmax at 7 days [2, 8]: 3400 ng/mL
Tmax at 7 days [2, 8]: 5.69 h
half-life at 7 days [2, 8]: 12 h
AUC(0-inf) ([2]; female, iv, 0.5 mL/kg, TRQI 0.5 mL/kg for 7 days, beagle No. 4): 14900 ng·h/mL
AUC(0-t) ([2]; female, iv, 0.5 mL/kg, TRQI 0.5 mL/kg for 7 days, beagle No. 4, read-out: AUC0–24 h): 4740 ng·h/mL
AUC(0-inf) ([2]; female, iv, 0.5 mL/kg, TRQI 0.5 mL/kg for 7 days, beagle No. 5): 4220 ng·h/mL
AUC(0-t) ([2]; female, iv, 0.5 mL/kg, TRQI 0.5 mL/kg for 7 days, beagle No. 5, read-out: AUC0–24 h): 2560 ng·h/mL
AUC(0-inf) ([2]; female, iv, 0.5 mL/kg, TRQI 0.5 mL/kg for 7 days, beagle No. 6): 2810 ng·h/mL
AUC(0-t) ([2]; female, iv, 0.5 mL/kg, TRQI 0.5 mL/kg for 7 days, beagle No. 6, read-out: AUC0–24 h): 2670 ng·h/mL
AUC(0-inf) ([2]; female, po, 0.09 g/kg, TRQC 0.09 g/kg for 7 days, beagle No. 4): 112000 ng·h/mL
AUC(0-t) ([2]; female, po, 0.09 g/kg, TRQC 0.09 g/kg for 7 days, beagle No. 4, read-out: AUC0–24 h): 109000 ng·h/mL
AUC(0-inf) ([2]; female, po, 0.09 g/kg, TRQC 0.09 g/kg for 7 days, beagle No. 5): 20100 ng·h/mL
AUC(0-t) ([2]; female, po, 0.09 g/kg, TRQC 0.09 g/kg for 7 days, beagle No. 5, read-out: AUC0–24 h): 10500 ng·h/mL
AUC(0-inf) ([2]; female, po, 0.09 g/kg, TRQC 0.09 g/kg for 7 days, beagle No. 6): 45000 ng·h/mL
AUC(0-t) ([2]; female, po, 0.09 g/kg, TRQC 0.09 g/kg for 7 days, beagle No. 6, read-out: AUC0–24 h): 17600 ng·h/mL
AUC(0-inf) ([2]; male, iv, 0.5 mL/kg, TRQI 0.5 mL/kg for 7 days, beagle No. 1): 75900 ng·h/mL
AUC(0-t) ([2]; male, iv, 0.5 mL/kg, TRQI 0.5 mL/kg for 7 days, beagle No. 1, read-out: AUC0–24 h): 72400 ng·h/mL
AUC(0-inf) ([2]; male, iv, 0.5 mL/kg, TRQI 0.5 mL/kg for 7 days, beagle No. 2): 1860 ng·h/mL
AUC(0-t) ([2]; male, iv, 0.5 mL/kg, TRQI 0.5 mL/kg for 7 days, beagle No. 2, read-out: AUC0–24 h): 1720 ng·h/mL
AUC(0-inf) ([2]; male, iv, 0.5 mL/kg, TRQI 0.5 mL/kg for 7 days, beagle No. 3): 14600 ng·h/mL
AUC(0-t) ([2]; male, iv, 0.5 mL/kg, TRQI 0.5 mL/kg for 7 days, beagle No. 3, read-out: AUC0–24 h): 14500 ng·h/mL
AUC(0-inf) ([2]; male, po, 0.09 g/kg, TRQC 0.09 g/kg for 7 days, beagle No. 1): 2940 ng·h/mL
AUC(0-t) ([2]; male, po, 0.09 g/kg, TRQC 0.09 g/kg for 7 days, beagle No. 1, read-out: AUC0–24 h): 2760 ng·h/mL
AUC(0-inf) ([2]; male, po, 0.09 g/kg, TRQC 0.09 g/kg for 7 days, beagle No. 2): 24400 ng·h/mL
AUC(0-t) ([2]; male, po, 0.09 g/kg, TRQC 0.09 g/kg for 7 days, beagle No. 2, read-out: AUC0–24 h): 23900 ng·h/mL
AUC(0-inf) ([2]; male, po, 0.09 g/kg, TRQC 0.09 g/kg for 7 days, beagle No. 3): 7520 ng·h/mL
AUC(0-t) ([2]; male, po, 0.09 g/kg, TRQC 0.09 g/kg for 7 days, beagle No. 3, read-out: AUC0–24 h): 7190 ng·h/mL
Freeze-thaw stability (3 cycles) Mean ± S.D. concentration [3, 9]: 1048.41 ± 75.10 ng/mL
Long-term stability (30 days at – 80 °C) Mean ± S.D. concentration [3, 9]: 1081.75 ± 20.70 ng/mL
Short-term stability (6 h at room temperature) Mean ± S.D concentration [3, 9]: 1104.46 ± 16.75 ng/mL
Freeze-thaw stability (3 cycles) Mean ± S.D. concentration [3, 10]: 18.47 ± 1.66 ng/mL
Long-term stability (30 days at – 80 °C) Mean ± S.D. concentration [3, 10]: 18.77 ± 0.41 ng/mL
Short-term stability (6 h at room temperature) Mean ± S.D concentration [3, 10]: 19.38 ± 0.97 ng/mL
Freeze-thaw stability (3 cycles) Mean ± S.D. concentration [3, 11]: 87.08 ± 1.95 ng/mL
Long-term stability (30 days at – 80 °C) Mean ± S.D. concentration [3, 11]: 90.80 ± 1.57 ng/mL
Short-term stability (6 h at room temperature) Mean ± S.D concentration [3, 11]: 97.83 ± 0.62 ng/mL
t1/2 ([4]; Hu's study): 0.933 h
t1/2 ([4]; another study): 0.233 h
